Test results published in ChEMBL document CHEMBL3425509, “Design, synthesis, and biological evaluation of benzofuran- and 2,3-dihydrobenzofuran-2-carboxylic acid N-(substituted)phenylamide derivatives as anticancer agents and inhibitors of NF-κB” (Bioorg Med Chem Lett, 2015).

Experiments:
[1] = Cytotoxicity against human NUGC3 cells assessed as cell viability at 10 uM after 72 hrs by sulforhodamine B assay relative to control; format: functional; conditions: NUGC-3, 72 h, read-out: Activity
[2] = biological target: Nuclear factor NF-kappa-B complex (Homo sapiens) (UniProt Q00653+P19838+Q04206); assay: Inhibition of NF-kappaB (unknown origin) transcriptional activity in LPS-induced mouse RAW264.7 cells at 30 uM after 1 hr by secreted alkaline phosphatase assay relative to control; format: cell-based
Sequence of Nuclear factor NF-kappa-B complex (Homo sapiens) (P19838 whole entry, looked up): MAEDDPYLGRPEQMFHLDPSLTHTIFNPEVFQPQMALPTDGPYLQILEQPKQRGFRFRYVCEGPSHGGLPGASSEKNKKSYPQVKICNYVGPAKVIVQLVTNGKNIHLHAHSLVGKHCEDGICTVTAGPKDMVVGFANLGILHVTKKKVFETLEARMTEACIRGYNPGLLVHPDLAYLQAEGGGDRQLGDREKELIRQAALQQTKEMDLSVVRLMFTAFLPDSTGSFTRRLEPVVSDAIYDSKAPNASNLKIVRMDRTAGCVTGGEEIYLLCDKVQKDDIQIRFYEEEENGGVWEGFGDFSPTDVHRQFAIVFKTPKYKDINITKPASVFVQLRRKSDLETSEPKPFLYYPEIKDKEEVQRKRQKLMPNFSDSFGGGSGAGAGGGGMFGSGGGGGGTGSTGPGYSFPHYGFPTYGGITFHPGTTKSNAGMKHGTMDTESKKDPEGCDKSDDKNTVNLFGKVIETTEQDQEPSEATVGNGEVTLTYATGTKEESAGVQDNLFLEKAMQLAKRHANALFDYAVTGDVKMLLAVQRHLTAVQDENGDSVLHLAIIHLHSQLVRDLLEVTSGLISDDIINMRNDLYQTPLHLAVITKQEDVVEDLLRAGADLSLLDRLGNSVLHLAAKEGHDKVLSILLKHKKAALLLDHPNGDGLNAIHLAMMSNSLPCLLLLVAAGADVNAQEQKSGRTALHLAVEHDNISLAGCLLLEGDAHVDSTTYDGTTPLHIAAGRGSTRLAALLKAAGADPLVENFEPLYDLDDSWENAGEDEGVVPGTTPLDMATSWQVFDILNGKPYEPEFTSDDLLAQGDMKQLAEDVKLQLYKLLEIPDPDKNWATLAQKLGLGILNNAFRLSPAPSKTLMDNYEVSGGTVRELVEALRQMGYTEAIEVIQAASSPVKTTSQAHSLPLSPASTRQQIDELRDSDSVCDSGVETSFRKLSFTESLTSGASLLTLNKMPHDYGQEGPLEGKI
Sequence of Nuclear factor NF-kappa-B complex (Homo sapiens) (Q00653 whole entry, looked up): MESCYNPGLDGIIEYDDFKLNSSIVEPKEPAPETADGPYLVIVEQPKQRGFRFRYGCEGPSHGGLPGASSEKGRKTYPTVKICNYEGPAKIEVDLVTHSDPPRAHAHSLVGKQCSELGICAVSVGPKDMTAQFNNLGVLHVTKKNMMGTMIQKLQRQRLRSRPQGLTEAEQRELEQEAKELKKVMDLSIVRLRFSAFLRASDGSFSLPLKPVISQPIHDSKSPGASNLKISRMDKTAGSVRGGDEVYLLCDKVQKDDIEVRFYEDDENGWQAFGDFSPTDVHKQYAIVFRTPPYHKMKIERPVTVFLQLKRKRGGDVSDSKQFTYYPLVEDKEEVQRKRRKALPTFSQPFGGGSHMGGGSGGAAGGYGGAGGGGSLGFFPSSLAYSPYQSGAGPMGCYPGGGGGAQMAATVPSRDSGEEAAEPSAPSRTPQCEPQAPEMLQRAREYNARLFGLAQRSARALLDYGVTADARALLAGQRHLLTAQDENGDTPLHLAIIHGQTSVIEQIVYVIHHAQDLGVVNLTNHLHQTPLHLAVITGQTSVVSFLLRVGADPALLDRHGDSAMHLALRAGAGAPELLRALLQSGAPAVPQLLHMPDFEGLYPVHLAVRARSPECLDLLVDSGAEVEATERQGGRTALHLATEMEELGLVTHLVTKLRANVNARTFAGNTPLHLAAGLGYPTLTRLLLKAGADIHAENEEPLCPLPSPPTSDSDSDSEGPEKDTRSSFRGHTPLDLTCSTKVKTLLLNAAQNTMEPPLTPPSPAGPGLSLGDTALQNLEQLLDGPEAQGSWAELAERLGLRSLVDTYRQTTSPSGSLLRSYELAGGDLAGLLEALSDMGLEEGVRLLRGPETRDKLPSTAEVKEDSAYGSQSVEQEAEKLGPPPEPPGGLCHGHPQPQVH
Sequence of Nuclear factor NF-kappa-B complex (Homo sapiens) (Q04206 whole entry, looked up): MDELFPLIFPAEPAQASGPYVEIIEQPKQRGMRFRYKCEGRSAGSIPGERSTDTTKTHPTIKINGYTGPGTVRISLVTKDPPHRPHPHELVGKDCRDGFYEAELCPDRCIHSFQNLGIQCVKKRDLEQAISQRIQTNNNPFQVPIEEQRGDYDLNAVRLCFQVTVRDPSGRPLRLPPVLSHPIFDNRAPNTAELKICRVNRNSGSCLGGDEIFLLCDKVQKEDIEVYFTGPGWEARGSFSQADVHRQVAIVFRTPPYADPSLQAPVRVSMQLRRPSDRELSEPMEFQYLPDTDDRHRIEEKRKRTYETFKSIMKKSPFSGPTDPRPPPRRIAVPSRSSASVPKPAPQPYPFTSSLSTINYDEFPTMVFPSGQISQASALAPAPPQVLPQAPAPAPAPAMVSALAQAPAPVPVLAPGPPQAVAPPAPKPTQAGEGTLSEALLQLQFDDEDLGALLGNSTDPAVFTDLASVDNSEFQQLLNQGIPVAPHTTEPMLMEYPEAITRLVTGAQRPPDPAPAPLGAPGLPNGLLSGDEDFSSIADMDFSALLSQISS

ACHN [3] = assay: Cytotoxicity against human ACHN cells assessed as cell viability at 10 uM after 72 hrs by sulforhodamine B assay relative to control; format: functional; conditions: read-out: Activity
[4] = biological target: Nuclear factor NF-kappa-B complex (Homo sapiens, UniProt P19838+Q00653+Q04206); assay: Inhibition of NF-kappaB (unknown origin) transcriptional activity in LPS-induced mouse RAW264.7 cells after 1 hr by secreted alkaline phosphatase assay; format: cell-based
Sequence of Nuclear factor NF-kappa-B complex (P19838 1-433 limits assumed): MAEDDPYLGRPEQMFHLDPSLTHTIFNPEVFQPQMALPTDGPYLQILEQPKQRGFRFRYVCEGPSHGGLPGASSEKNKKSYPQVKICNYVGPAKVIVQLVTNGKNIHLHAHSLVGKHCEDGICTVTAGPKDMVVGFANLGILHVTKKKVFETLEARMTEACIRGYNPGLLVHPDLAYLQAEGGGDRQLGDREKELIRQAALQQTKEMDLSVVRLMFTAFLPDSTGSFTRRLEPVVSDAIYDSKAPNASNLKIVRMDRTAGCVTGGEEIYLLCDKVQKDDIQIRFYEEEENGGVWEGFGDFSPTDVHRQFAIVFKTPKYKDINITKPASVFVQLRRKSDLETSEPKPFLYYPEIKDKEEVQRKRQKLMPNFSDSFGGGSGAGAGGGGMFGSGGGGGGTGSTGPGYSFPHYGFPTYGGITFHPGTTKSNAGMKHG
Sequence of Nuclear factor NF-kappa-B complex (Q00653 1-454 limits assumed): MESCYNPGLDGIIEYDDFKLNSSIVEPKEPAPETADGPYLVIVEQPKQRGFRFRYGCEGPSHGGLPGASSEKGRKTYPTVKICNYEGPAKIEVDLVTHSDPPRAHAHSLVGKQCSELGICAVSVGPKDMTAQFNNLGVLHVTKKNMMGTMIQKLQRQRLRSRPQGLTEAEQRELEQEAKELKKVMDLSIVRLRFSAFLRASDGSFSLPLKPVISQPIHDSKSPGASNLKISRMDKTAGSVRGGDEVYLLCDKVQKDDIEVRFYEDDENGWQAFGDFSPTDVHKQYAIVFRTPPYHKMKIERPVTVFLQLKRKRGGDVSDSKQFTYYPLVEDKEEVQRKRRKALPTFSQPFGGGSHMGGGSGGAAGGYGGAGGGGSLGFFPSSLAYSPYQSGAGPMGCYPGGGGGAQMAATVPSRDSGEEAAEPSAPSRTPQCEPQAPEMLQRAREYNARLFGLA
Sequence of Nuclear factor NF-kappa-B complex (Q04206 whole entry): as the sequence (Q04206 whole entry, looked up) above

[5] = Cytotoxicity against human HCT15 cells assessed as cell viability at 10 uM after 72 hrs by sulforhodamine B assay relative to control; format: functional; conditions: HCT-15, 72 h, read-out: Activity
NCI-H23 [6] = assay: Cytotoxicity against human NCI-H23 cells assessed as cell viability at 10 uM after 72 hrs by sulforhodamine B assay relative to control; format: functional; conditions: NCI-H23, 72 h, read-out: Activity
MDA-MB-231 [7] = assay: Cytotoxicity against human MDA-MB-231 cells assessed as cell viability at 10 uM after 72 hrs by sulforhodamine B assay relative to control; format: functional; conditions: MDA-MB-231, 72 h, read-out: Activity
[8] = Cytotoxicity against human PC3 cells assessed as cell viability at 10 uM after 72 hrs by sulforhodamine B assay relative to control; format: functional; conditions: PC-3, 72 h, read-out: Activity
[9] = Cytotoxicity against human PC3 cells assessed as growth inhibition after 72 hrs by sulforhodamine B assay; format: functional; conditions: PC-3, 72 h
[10] = Cytotoxicity against human HCT15 cells assessed as growth inhibition after 72 hrs by sulforhodamine B assay; format: functional; conditions: HCT-15, 72 h
[11] = Cytotoxicity against human NUGC3 cells assessed as growth inhibition after 72 hrs by sulforhodamine B assay; format: functional; conditions: NUGC-3, 72 h
ACHN [12] = assay: Cytotoxicity against human ACHN cells assessed as growth inhibition after 72 hrs by sulforhodamine B assay; format: functional
MDA-MB-231 [13] = assay: Cytotoxicity against human MDA-MB-231 cells assessed as growth inhibition after 72 hrs by sulforhodamine B assay; format: functional; conditions: MDA-MB-231, 72 h
NCI-H23 [14] = assay: Cytotoxicity against human NCI-H23 cells assessed as growth inhibition after 72 hrs by sulforhodamine B assay; format: functional; conditions: NCI-H23, 72 h

Row | Structure (SMILES) | viability at 10 µM [1] [%] | inhibition [2] [%] | viability at 10 µM (ACHN [3]) [%] | IC50 [4] [nM] | viability at 10 µM [5] [%] | viability at 10 µM (NCI-H23 [6]) [%] | viability at 10 µM (MDA-MB-231 [7]) [%] | viability at 10 µM [8] [%] | GI50 [9] [nM] | GI50 [10] [nM] | GI50 [11] [nM] | GI50 (ACHN [12]) [nM] | GI50 (MDA-MB-231 [13]) [nM] | GI50 (NCI-H23 [14]) [nM]
1 | O=C(Nc1cc(C(F)(F)F)cc(C(F)(F)F)c1)c1cc2ccccc2o1 | 98 | 51.5 | 95 | 34000 | 98 | 101 | 98 | 110 |  |  |  |  |  | 
2 | COc1cc2c(cc1O)CCC(C(=O)Nc1ccccc1)O2 (stereo not drawn) | 99 |  | 109 | 37200 | 105 | 86 | 81 | 90 |  |  |  |  |  | 
3 | O=C(Nc1ccc([N+](=O)[O-])cc1)C1Cc2ccccc2O1 (stereo not drawn) | 86 | 34 | 93 |  | 81 | 77 | 85 | 10 | 1860 |  |  |  |  | 
4 | O=C(Nc1ccc(O)cc1)c1cc2ccccc2o1 | 47 | 62 | 10 |  | 18 | 25 | -32 | -31 | 2680 | 2370 | 5860 | 2740 | 2200 | 2480
5 | O=C(Nc1ccc(Cl)c(Cl)c1)C1Cc2ccccc2O1 (stereo not drawn) | 107 | 65 | 109 | 23000 | 88 | 94 | 98 | 99 |  |  |  |  |  | 
6 | Cc1ccc(C)c(NC(=O)c2cc3ccccc3o2)c1 | 88 | 58 | 82 |  | 94 | 94 | 102 | 98 |  |  |  |  |  | 
7 | O=C(Nc1cccc(C(F)(F)F)c1)c1cc2ccccc2o1 | 79 | 47.5 | 83 |  | 75 | 92 | 105 | 96 |  |  |  |  |  | 
8 | Cc1cccc(NC(=O)c2cc3ccccc3o2)c1 | 99 | 38 | 93 |  | 87 | 101 | 106 | 94 |  |  |  |  |  | 
9 | COc1cccc(NC(=O)c2cc3ccccc3o2)c1 | 99 | 34.5 | 105 |  | 87 | 105 | 127 | 106 |  |  |  |  |  | 
10 | COc1ccccc1NC(=O)C1Cc2ccccc2O1 (stereo not drawn) | 111 | 29 | 134 |  | 100 | 111 | 89 | 88 |  |  |  |  |  | 
11 | Cc1cc(C)cc(NC(=O)c2cc3ccccc3o2)c1 | 93 | 70 | 101 |  | 79 | 99 | 94 | 94 |  |  |  |  |  | 
12 | COc1ccc(OC)c(NC(=O)c2cc3ccccc3o2)c1 | 91 | 23 | 102 |  | 97 | 103 | 101 | 106 |  |  |  |  |  | 
13 | COc1ccccc1NC(=O)c1cc2ccccc2o1 | 99 | 41 | 95 |  | 94 | 98 | 97 | 106 |  |  |  |  |  | 
14 | COc1cccc2c1C(=O)c1c(O)c3c(c(O)c1C2=O)C[C@@](O)(C(=O)CO)C[C@@H]3O[C@H]1C[C@H](N)[C@H](O)[C@H](C)O1 [DOXORUBICIN] |  |  |  |  |  |  |  |  | 910 | 450 | 190 | 200 | 560 | 400
15 | O=C(Nc1cc(C(F)(F)F)ccc1C(F)(F)F)C1Cc2ccccc2O1 (stereo not drawn) | 99 | 34 | 105 |  | 81 | 87 | 98 | 88 |  |  |  |  |  | 
16 | O=C(Nc1ccccc1Cl)c1cc2ccccc2o1 | 86 | 49.5 | 76 |  | 75 | 91 | 76 | 91 |  |  |  |  |  | 
17 | O=C(Nc1cccc(O)c1)C1Cc2ccccc2O1 (stereo not drawn) | 110 | 17 | 125 |  | 97 | 60 | 63 | 4 | 3970 |  |  |  |  | 
18 | COc1ccc(NC(=O)c2cc3ccccc3o2)cc1 | 102 | 39.5 | 109 |  | 87 | 101 | 110 | 111 |  |  |  |  |  | 
19 | Cc1ccccc1NC(=O)C1Cc2ccccc2O1 (stereo not drawn) | 91 | 38 | 108 |  | 88 | 91 | 103 | 87 |  |  |  |  |  | 
20 | O=C(Nc1ccccc1)C1Cc2ccccc2O1 (stereo not drawn) | 87 | 10 | 95 |  | 88 | 93 | 101 | 92 |  |  |  |  |  | 
21 | S=C(S)N1CCCC1 [PYRROLIDINE DITHIOCARBAMATE] |  |  |  | 34500 |  |  |  |  | 170 | 130 | 140 | 230 | 160 | 100
22 | O=C(Nc1ccccc1O)C1Cc2ccccc2O1 (stereo not drawn) | 103 | 20.5 | 134 |  | 102 | 102 | 83 | 109 |  |  |  |  |  | 
23 | O=C(Nc1cc(C(F)(F)F)ccc1C(F)(F)F)c1cc2ccccc2o1 | 89 | 28.5 | 84 |  | 88 | 77 | 98 | 95 |  |  |  |  |  | 
24 | Cc1cccc(NC(=O)C2Cc3ccccc3O2)c1 (stereo not drawn) | 108 | 25 | 145 |  | 99 | 98 | 95 | 96 |  |  |  |  |  | 
25 | COc1ccc(NC(=O)c2cc3ccccc3o2)cc1OC | 90 | 40 | 99 |  | 92 | 102 | 81 | 98 |  |  |  |  |  | 
26 | O=C(Nc1cccc(Cl)c1)c1cc2ccccc2o1 | 83 | 37 | 69 |  | 52 | 61 | 80 | 95 |  |  |  |  |  | 
27 | O=C(Nc1ccccc1O)c1cc2ccccc2o1 | 84 | 23 | 84 |  | 58 | 86 | 85 | 68 |  |  |  |  |  | 
